This is an account of results in patent US20110217297A1, “METHODS FOR CLASSIFYING AND TREATING BREAST CANCERS” (priority 2010, published 2011).

Entries after “also recorded” stand apart in the source; their conditions may differ.

The subject of test [1] is tumors. The conditions noted are these: TNP-470 below maximum tolerated dose plus cyclophosphamide 170 mg/kg, every 6 days, in combination; cited from earlier work.
Test [2] concerns breast cancer molecular subtypes I-VI. The test is described as follows: Metastasis-free and overall survival of breast cancer patients treated with CMF or CAF adjuvant chemotherapy, compared in each molecular subtype (log-rank test). In kind it is in vivo, human. The conditions noted are these: for sensitivity / response of the breast cancer subtype to the drug or regimen: molecular subtype IV breast cancer, inferred from CMF vs CAF survival. The source says:
Patients who had been diagnosed, treated and followed for breast cancer progression between 1991 and 2003 at the Koo Foundation Sun Yat-Sen Cancer Center (KFSYSCC), and had their fresh breast cancer tissue frozen in liquid nitrogen at the institutional tumor bank were identified. […] The study was approved by the institutional review board. Samples deposited in the tumor bank were randomly selected. A total of 447 cases were available. Samples of insufficient RNA (n=1), poor RNA quality (n=116) or unacceptable microarray quality (n=18) were excluded from the study, leaving 312 random samples available (Cohort-1). Gene expression profiles of 15 additional lobular carcinomas of breast collected between 1999 and 2004 were also included in the study (Cohort 2). Thus, the total number of samples was 327.
All statistical analyses were conducted using SAS/STAT software (ver. 9.1.3) (SAS Institute, Inc.) and R software package (v2.6) from Bioconductor. Fisher's exact test was conducted to determine statistical correlation between molecular subtypes and various clinical phenotypes. The exact p values were estimated by Monte Carlo simulation. Log-rank test was used to analyze survival differences between different molecular subtypes or treatment groups.
The breast cancer samples used in this study were collected over a period of more than 10 years. The period covered a major shift of chemotherapy regimen from CMF (cyclophosphamide-methotrexate-fluorouracil) therapy to CAF (cyclophosphamide-adriamycin-fluorouracil) therapy around 1997 and 1998. The cohorts in this study offered a precious opportunity to investigate how different molecular subtypes of breast cancer responded differently to this change of adjuvant chemotherapy regimen.
Metastasis-free and overall survival were compared for patients treated with CMF and CAF for adjuvant therapy in each molecular subtype. […] Nevertheless, the CAF group had more N stage=1 patients and the CMF group had more N stage=0 patients (Table 15b).

For `CO[C@@H]1[C@H](OC(=O)NC(=O)CCl)CC[C@]2(CO2)[C@H]1[C@@]1(C)O[C@@H]1CC=C(C)C` [TNP-470], the “tumor response to the treatment regimen” value in test [1] is “complete regression”.

As to `COc1cccc2c1C(=O)c1c(O)c3c(c(O)c1C2=O)C[C@@](O)(C(=O)CO)C[C@@H]3O[C@H]1C[C@H](N)[C@H](O)[C@H](C)O1` [adriamycin, doxorubicin], the “treatment results (metastasis-free and overall survival), CAF vs CMF adjuvant chemotherapy” value in test [2] (molecular subtype IV breast cancer patients, adjuvant chemotherapy after surgery) is “dramatic impact; also recorded: significantly improved”. In addition, the “sensitivity / response of the breast cancer subtype to the drug or regimen” value in test [2] was “very sensitive”. As for `O=P1(N(CCCl)CCCl)NCCCO1` (centres unmarked) [cyclophosphamide], in test [1], the “tumor response to the treatment regimen” value is “complete regression”.

`CN(Cc1cnc2nc(N)nc(N)c2n1)c1ccc(C(=O)N[C@@H](CCC(=O)O)C(=O)O)cc1` [methotrexate]: the “sensitivity / response of the breast cancer subtype to the drug or regimen” value in test [2] is “relatively insensitive”.
